Test results reported in patent US11959929B2, “Method of quantifying lysergic acid diethylamide (LSD) and 2,3-dihydro-3-hydroxy-2-oxo lysergide (O-H-LSD) in human plasma” (Universitatsspital Basel, priority 2020, dated 2024).
Several values for one entry are separate records, joined by “and”; a condition that tells them apart may be missing. Equal entries are not always repeated.

Legend:
[1] = Freeze/thaw stability tests in human plasma (three cycles, about −20° C.); type: physicochemical; conditions: for Change in concentration [%]: 3 F/T cycles vs Baseline; for Accuracy: single QC replicate
Excerpt: (§1) Each analyte had to be stable in human plasma for at least three freeze-thaw cycles (for repeated sample preparations) and at ambient temperature for at least eight hours (maximal duration of sample preparation). Measured samples should be stable for a second injection when the first analytical run was not valid. The analytes had to be stable in the matrix at the intended storage temperatures and study duration.
(§2) An analyte was considered stable at one of the above tests when no increase or decrease of the analyte concentration of more than 15% for the mean of at least three analyzed QC samples at low, medium and at high concentration was observed.
Seven of each LLOQ, QCLOW, QCMID, QCHIGH, and ULOQ sample in human plasma were stored at about −20° C. for at least 24 hours and thawed unassisted at ambient temperature. When completely thawed, the samples were refrozen for at least 12 hours under the same conditions. The freeze-thaw cycle was repeated two more times. After the third cycle the samples were worked up and analyzed. The concentrations in the frozen and thawed samples were compared with freshly processed QC samples. Concentrations were calculated based on two freshly prepared CALs measured at the beginning and the other at the end of the validation run.

[2] = Bench-top (short-term) stability test in human plasma, 8 hours at ambient temperature; type: physicochemical; conditions: for Change in concentration [%]: 8 h at RT vs Baseline; for Accuracy: single QC replicate
Excerpt: as §1, §2
Seven of each LLOQ, QCLOW, QCMID, QCHIGH, and ULOQ samples in human plasma were thawed at ambient temperature and kept at this temperature for 8 hours. Afterwards, the samples were worked up and analyzed. The values of the concentrations in the “short-term” samples were compared with freshly processed QC samples. Concentrations were calculated based on two freshly prepared CAL sets measured at the beginning and the end of the validation run.

[3] = Reinjection reproducibility of worked-up plasma samples (overnight at 10° C. in autosampler; 1 week at −20° C.); type: physicochemical, human; conditions: for Change in concentration: 1 night at 10° C. in the autosampler vs Baseline; for Change in concentration [%]: 8 days at −20° C. vs Baseline; for Accuracy: single QC replicate
Excerpt: as §1, §2
Worked-up and measured Cal and QC samples (prepared in human plasma) of a valid run were repeatedly analyzed. Reinjection was performed after overnight storage at 10° C. (autosampler) and after 1-week storage at −20° C. The run was checked according to the acceptance criteria for validation runs. The calculated mean values for QC samples were compared between the original and reinjected run.

[4] = QCHIGH: 1000 pg/ml, 3 F/T cycles
[5] = ULOQ: 10000 pg/ml, 3 F/T cycles
[6] = LLOQ: 10 pg/ml, reinjection after 8 days at −20° C.
[7] = QCHIGH: 1000 pg/ml, reinjection after 8 days at −20° C.
[8] = QCLOW: 25 pg/ml, reinjection after 8 days at −20° C.
[9] = QCMID: 100 pg/ml, reinjection after 8 days at −20° C.
[10] = ULOQ: 10000 pg/ml, reinjection after 8 days at −20° C.

CCN(CC)C(=O)[C@@H]1C=C2c3cccc4[nH]cc(c34)C[C@H]2N(C)C1 [LSD, Lysergic acid diethylamide]
Accuracy, Intra-assay Mean ([1]; LLOQ: 10 pg/ml, 3 F/T cycles): 83.7% | Change in concentration [%] ([1]; LLOQ: 10 pg/ml): −8.83% | Accuracy ([1]; LLOQ: 10 pg/ml, 3 F/T cycles): 81.9% and 75.0* % and 81.7% and 84.7% and 79.8* % and 81.8% and 88.5% | Accuracy, Intra-assay Mean ([1]; LLOQ: 10 pg/ml, Baseline): 91.8% | Accuracy ([1]; LLOQ: 10 pg/ml, Baseline): 96.6% and 95.7% and 83.2% | Accuracy, Intra-assay Mean [1, 4]: 96.5% | Change in concentration [%] ([1]; QCHIGH: 1000 pg/ml): 0.647% | Accuracy [1, 4]: 96.4% and 96.2% (2×) and 96.9% and 96.7% and 94.6% and 98.3% | Accuracy, Intra-assay Mean ([1]; QCHIGH: 1000 pg/ml, Baseline): 95.9% | Accuracy ([1]; QCHIGH: 1000 pg/ml, Baseline): 96.9% and 96.4% and 94.3% | Accuracy, Intra-assay Mean ([1]; QCLOW: 25 pg/ml, 3 F/T cycles): 96.7% | Change in concentration [%] ([1]; QCLOW: 25 pg/ml): 4.44% | Accuracy ([1]; QCLOW: 25 pg/ml, 3 F/T cycles): 95.2% and 102% and 101% and 91.5% and 98.8% and 93.6% and 94.9% | Accuracy, Intra-assay Mean ([1]; QCLOW: 25 pg/ml, Baseline): 92.6% | Accuracy ([1]; QCLOW: 25 pg/ml, Baseline): 94% and 93.4% and 90.5% | Accuracy, Intra-assay Mean ([1]; QCMID: 100 pg/ml, 3 F/T cycles): 98.5% | Change in concentration [%] ([1]; QCMID: 100 pg/ml): 1.03% | Accuracy ([1]; QCMID: 100 pg/ml, 3 F/T cycles): 99.2% and 97.9% and 99.5% and 99.6% and 94.9% and 98% and 100% | Accuracy, Intra-assay Mean ([1]; QCMID: 100 pg/ml, Baseline): 97.5% | Accuracy ([1]; QCMID: 100 pg/ml, Baseline): 101% and 94.3% and 97.4% | Accuracy, Intra-assay Mean [1, 5]: 95.7% | Change in concentration [%] ([1]; ULOQ: 10000 pg/ml): −0.9% | Accuracy [1, 5]: 97.8% and 94.3% and 94% and 96.4% and 99.2% and 93% and 95.2% | Accuracy, Intra-assay Mean ([1]; ULOQ: 10000 pg/ml, Baseline): 96.6% | Accuracy ([1]; ULOQ: 10000 pg/ml, Baseline): 94.7% and 94.9% and 100% | Change in plasma concentration following three freeze/thaw cycles ([1]; human plasma QC samples, −20° C., three freeze/thaw cycles, vs freshly processed QC): ≤ 8.83% | Accuracy, Intra-assay Mean ([2]; LLOQ: 10 pg/ml, 8 h at RT): 88.3% | Change in concentration [%] ([2]; LLOQ: 10 pg/ml): 3.81% | Accuracy ([2]; LLOQ: 10 pg/ml, 8 h at RT): 91.6% and 85.6% and 74.7* % and 83.10% and 92% and 86.1% and 91.7% | Accuracy, Intra-assay Mean ([2]; LLOQ: 10 pg/ml, Baseline): 91.8% | Accuracy ([2]; LLOQ: 10 pg/ml, Baseline): 96.6% and 95.7% and 83.2% | Accuracy, Intra-assay Mean ([2]; QCHIGH: 1000 pg/ml, 8 h at RT): 97.8% | Change in concentration [%] ([2]; QCHIGH: 1000 pg/ml): 1.99% | Accuracy ([2]; QCHIGH: 1000 pg/ml, 8 h at RT): 98.2% and 98.3% and 97.2% and 96.8% and 96.2% and 97.7% and 100% | Accuracy, Intra-assay Mean ([2]; QCHIGH: 1000 pg/ml, Baseline): 95.9% | Accuracy ([2]; QCHIGH: 1000 pg/ml, Baseline): 96.9% and 96.4% and 94.3% | Accuracy, Intra-assay Mean ([2]; QCLOW: 25 pg/ml, 8 h at RT): 92.7% | Change in concentration [%] ([2]; QCLOW: 25 pg/ml): 0.0885% | Accuracy ([2]; QCLOW: 25 pg/ml, 8 h at RT): 96% and 92.9% and 94.5% and 87.6% and 94.4% and 93.3% and 90% | Accuracy, Intra-assay Mean ([2]; QCLOW: 25 pg/ml, Baseline): 92.6% | Accuracy ([2]; QCLOW: 25 pg/ml, Baseline): 94% and 93.4% and 90.5% | Accuracy, Intra-assay Mean ([2]; QCMID: 100 pg/ml, 8 h at RT): 96% | Change in concentration [%] ([2]; QCMID: 100 pg/ml): −1.51% | Accuracy ([2]; QCMID: 100 pg/ml, 8 h at RT): 95.9% (2×) and 95.8% and 94.2% and 91.1% and 99.2% and 99.7% | Accuracy, Intra-assay Mean ([2]; QCMID: 100 pg/ml, Baseline): 97.5% | Accuracy ([2]; QCMID: 100 pg/ml, Baseline): 101% and 94.3% and 97.4% | Accuracy, Intra-assay Mean ([2]; ULOQ: 10000 pg/ml, 8 h at RT): 94.9% | Change in concentration [%] ([2]; ULOQ: 10000 pg/ml): −1.74% | Accuracy ([2]; ULOQ: 10000 pg/ml, 8 h at RT): 94.7% and 93.4% and 94.6% and 96.9% and 95.4% and 95% and 94.3% | Accuracy, Intra-assay Mean ([2]; ULOQ: 10000 pg/ml, Baseline): 96.6% | Accuracy ([2]; ULOQ: 10000 pg/ml, Baseline): 94.7% and 94.9% and 100% | Change in plasma concentration after 8 hours storage at room temperature ([2]; human plasma QC samples, 8 hours at room temperature, vs freshly processed QC): ≤ 3.81% | Change in concentration ([3]; LLOQ: 10 pg/ml): 1.09% | Change in concentration ([3]; QCHIGH: 1000 pg/ml): −0.451% | Change in concentration ([3]; QCLOW: 25 pg/ml): −0.0195% | Change in concentration ([3]; QCMID: 100 pg/ml): 2.3% | Change in concentration ([3]; ULOQ: 10000 pg/ml): 0.383% | Change in concentration [%] ([3]; LLOQ: 10 pg/ml): −1.26% | Accuracy, Intra-assay Mean ([3]; LLOQ: 10 pg/ml, Baseline): 96.6% | Accuracy ([3]; LLOQ: 10 pg/ml, Baseline): 92.5% and 95% and 76.3* % and 91.3% and 98% and 109% and 93.7% | Accuracy, Intra-assay Mean [3, 6]: 95.4% | Accuracy [3, 6]: 104% and 97.5% and 86% and 95.3% and 100% and 94.7% and 90.3% | Change in concentration [%] ([3]; QCHIGH: 1000 pg/ml): −0.333% | Accuracy, Intra-assay Mean ([3]; QCHIGH: 1000 pg/ml, Baseline): 100% | Accuracy ([3]; QCHIGH: 1000 pg/ml, Baseline): 96.5% and 99.5% and 97.7% and 101% (3×) and 103% | Accuracy, Intra-assay Mean [3, 7]: 99.7% | Accuracy [3, 7]: 101% (2×) and 98.8% and 98.9% and 99.9% and 99.1% and 99.6% | Change in concentration [%] ([3]; QCLOW: 25 pg/ml): −0.948% | Accuracy, Intra-assay Mean ([3]; QCLOW: 25 pg/ml, Baseline): 101% | Accuracy ([3]; QCLOW: 25 pg/ml, Baseline): 101% (2×) and 104% and 97.9% and 102% and 103% and 99.5% | Accuracy, Intra-assay Mean [3, 8]: 100% | Accuracy [3, 8]: 95.5% and 102% and 107% and 96.4% and 106% and 92% and 103% | Change in concentration [%] ([3]; QCMID: 100 pg/ml): 1.02% | Accuracy, Intra-assay Mean ([3]; QCMID: 100 pg/ml, Baseline): 101% | Accuracy ([3]; QCMID: 100 pg/ml, Baseline): 101% (4×) and 102% and 96.6% and 107% | Accuracy, Intra-assay Mean [3, 9]: 102% | Accuracy [3, 9]: 101% and 103% (2×) and 102% (2×) and 99.9% and 105% | Change in concentration [%] ([3]; ULOQ: 10000 pg/ml): −1.85% | Accuracy, Intra-assay Mean ([3]; ULOQ: 10000 pg/ml, Baseline): 97.2% | Accuracy ([3]; ULOQ: 10000 pg/ml, Baseline): 97.9% and 97.3% and 98.1% and 96.5% and 97.1% and 98.7% and 95% | Accuracy, Intra-assay Mean [3, 10]: 95.4% | Accuracy [3, 10]: 97.4% and 96.6% and 95.2% and 92.9% and 95.1% and 96.4% and 94.2% | Deviations of the means of the QCs of the two runs (reinjection) after 8 days at −20° C. ([3]; worked-up human plasma samples, 8 days at −20° C.): −1.85% to +1.02 | Deviations of the means of the QCs of the two runs (reinjection) after overnight storage at 10° C. ([3]; worked-up human plasma samples, overnight at 10° C. in the autosampler): −0.451% to +2.3
